Counter-ions that a name gives are not always drawn. Like-named read-outs stand apart in the source and are kept apart here.

These results are taken from patent publication US10722520B2, “Heterocyclic compounds and their use in preventing or treating bacterial infections” (MUTABILIS, priority 2016, dated 2020).

Among the targets are SHV-1 (Klebsiella pneumoniae, UniProt P0AD64); OXA-48 (Klebsiella pneumoniae, UniProt Q6XEC0); TEM-1 (Escherichia coli, UniProt P62593); CTX-M-15 (Escherichia coli, UniProt Q9EXV5); KPC-2 (Klebsiella pneumoniae, UniProt Q9F663); OXA-11 (Pseudomonas aeruginosa, UniProt Q06778); OXA-1 (Escherichia coli, UniProt P13661).
Another assay concerns E. coli 190317. Kind of assay: MIC of compound alone, broth microdilution. Type of assay: cell-based. The conditions noted are these: Escherichia coli; strain 190317; compound alone; read-out: MIC compounds of the invention alone. As to the method:
(§1) Log phase bacterial suspensions were adjusted to a final density of 5×10^5 cfu/mL in cation-adjusted Mueller-Hinton broth (Becton-Dickinson) and added to each well (98 μL). Microplates were incubated for 16-20 h at 35° C. in ambient air. The MIC of the compounds was defined as the lowest concentration of said compounds that prevented bacterial growth as read by visual inspection.
In general terms: In broth dilution the organism is exposed to a series of concentrations in liquid medium.

The next assay has as its system K. pneumoniae BAA-1898. Kind of assay: MIC of compound alone, broth microdilution. In kind it is cell-based. The note with it: Klebsiella pneumoniae, BAA1898; strain BAA-1898; compound alone; read-out: MIC compounds of the invention alone. As to the method: as §1
A further assay deals with K. pneumoniae 6299. The experiment in a line: MIC of compound alone, broth microdilution. Type of assay: cell-based. The conditions noted are these: Klebsiella pneumoniae; strain 6299; compound alone; read-out: MIC compounds of the invention alone. As to the method:
as §1

In another assay the test system is E. cloacae P99. The experiment in a line: MIC of compound alone, broth microdilution. Type of assay: cell-based. The conditions noted are these: Enterobacter cloacae; strain P99; compound alone; read-out: MIC compounds of the invention alone. As to the method:
as §1

Another assay concerns P. aeruginosa CIP107051. Kind of assay: MIC of compound alone, broth microdilution. Type of assay: cell-based. The conditions noted are these: Pseudomonas aeruginosa; strain CIP107051; compound alone; read-out: MIC compounds of the invention alone. As to the method: as §1
Another assay has as its target AmpC (P99) (Enterobacter cloacae, UniProt P05364). The experiment in a line: biochemical.
The target in the next assay is CMY-37 (Citrobacter freundii, UniProt P05193). The note with it: read-out: IC50 β-lactamase CMY-37.
The next assay has as its target AmpC (PAE) (Pseudomonas aeruginosa, UniProt P24735). The experiment in a line: biochemical.
For the next assay, the target named is OXA-15 (Pseudomonas aeruginosa, UniProt Q51574). Kind of assay: biochemical.

Regarding `O=C(Nc1ccn(C2=CC3CN(C2)C(=O)N3OS(=O)(=O)[O-])n1)c1nccs1.[Na+]` (centres unmarked) [Example 34, sodium {7-oxo-3-[3-(thiazole-2-carbonylamino)pyrazol-1-yl]-1,6-diazabicyclo[3.2.1]oct-3-en-6-yl}sulfate], the IC50 turned out to be 0.0031 µM at SHV-1; 0.0094 µM at OXA-48; 0.001 µM at TEM-1; 0.00092 µM at CTX-M-15; 0.01 µM against AmpC (P99); 0.0085 µM against KPC-2. For the same compound, the concentration for half-maximal inhibition (IC50) on CMY-37 was found to be 0.0062 µM; against OXA-11, 0.013 µM; on OXA-1 it was 0.13 µM; at AmpC (PAE) it was 0.056 µM; on OXA-15 it was 0.034 µM. Besides, the MIC in the assay on E. coli 190317, in the assay on K. pneumoniae BAA-1898, in the assay with K. pneumoniae 6299, with E. cloacae P99 and with P. aeruginosa CIP107051 was more than 32 mg/L throughout.

As to `O=C(Nc1cc[nH]n1)c1ccn(C2=CC3CN(C2)C(=O)N3OS(=O)(=O)[O-])n1.[Na+]` (centres unmarked) [Example 85, sodium [7-oxo-3-[3-(pyrazol-3-ylcarbamoyl)pyrazol-1-yl]-1,6-diazabicyclo[3.2.1]oct-3-en-6-yl]sulfate], the IC50 worked out at 0.0016 µM at SHV-1; 0.0017 µM at OXA-48; 0.00035 µM on TEM-1; 0.00059 µM against CTX-M-15; 0.011 µM against AmpC (P99); 0.0034 µM at KPC-2. Besides, the half-maximal inhibitory concentration (IC50) at OXA-11 was determined as 0.0075 µM; on OXA-1, 0.022 µM; at AmpC (PAE), 0.13 µM; against OXA-15 it was 0.016 µM. The minimum inhibitory concentration (MIC) in the assay with E. coli 190317 was 32 mg/L; in the assay on K. pneumoniae BAA-1898 it was more than 32 mg/L; in the assay with K. pneumoniae 6299, more than 32 mg/L; in the assay with E. cloacae P99, more than 32 mg/L; in the assay on P. aeruginosa CIP107051, more than 32 mg/L.

For the compound `O=C(N[C@@H]1CCNC1)c1ccn(C2=CC3CN(C2)C(=O)N3OS(=O)(=O)O)n1` (stereo partly drawn) [Example 83, [7-oxo-3-[3-[[(3R)-pyrrolidin-3-yl]carbamoyl]pyrazol-1-yl]-1,6-diazabicyclo[3.2.1]oct-3-en-6-yl]hydrogen sulfate], the half-maximal inhibitory concentration (IC50) against SHV-1 is 0.0038 µM; at OXA-48 it was 0.0032 µM; at TEM-1, 0.00027 µM; at CTX-M-15, 0.00064 µM; on AmpC (P99), 0.024 µM; at KPC-2, 0.0079 µM. For the same compound, the IC50 on CMY-37 (class (C), nitrocefin 200 μM, 30-min pre-incubation, enzyme 0.2 nM) was found to be 0.063 µM; against OXA-11, 0.024 µM; on OXA-1, 0.037 µM; against AmpC (PAE) it was 0.23 µM; against OXA-15, 0.032 µM. The minimum inhibitory concentration (MIC) in the assay on E. coli 190317 was 2 mg/L; in the assay with K. pneumoniae BAA-1898 it was 8 mg/L; in the assay with K. pneumoniae 6299, 32 mg/L; in the assay with E. cloacae P99, 8 mg/L; in the assay with P. aeruginosa CIP107051, more than 32 mg/L.

In the case of `COc1cnn(C2=CC3CN(C2)C(=O)N3OS(=O)(=O)[O-])c1.[Na+]` (centres unmarked) [Example 9, sodium [7-oxo-3-(4-methoxypyrazol-1-yl)-1,6-diazabicyclo[3.2.1]oct-3-en-6-yl]sulfate], the half-maximal inhibitory concentration (IC50) came out at 0.0019 µM against SHV-1; 0.007 µM at OXA-48; 0.00041 µM on TEM-1; 0.0005 µM at CTX-M-15; 0.015 µM against AmpC (P99); 0.022 µM at KPC-2. Also, the IC50 at CMY-37 was 0.0093 µM; against OXA-11, 0.31 µM; on OXA-1, 0.41 µM; on AmpC (PAE), 0.029 µM; on OXA-15, 0.055 µM. Moreover, the MIC with E. coli 190317, in the assay on K. pneumoniae BAA-1898, in the assay on K. pneumoniae 6299, with E. cloacae P99 and in the assay on P. aeruginosa CIP107051 was more than 32 mg/L in each case.

With `NC(=O)c1ccn(C2=CC3CN(C2)C(=O)N3OS(=O)(=O)[O-])n1.[Na+]` (centres unmarked) [Example 19, sodium [3-(3-carbamoylpyrazol-1-yl)-7-oxo-1,6-diazabicyclo[3.2.1]oct-3-en-6-yl]sulfate], the IC50 against SHV-1 stood at 0.0018 µM; on OXA-48 it was 0.0052 µM; on TEM-1 it was 0.00038 µM; against CTX-M-15 it was 0.0009 µM; against AmpC (P99), 0.019 µM; on KPC-2, 0.0062 µM. In addition, the concentration for half-maximal inhibition (IC50) on CMY-37 was determined as 0.041 µM; at OXA-11, 0.027 µM; on OXA-1, 0.11 µM; at AmpC (PAE) it was 0.17 µM; against OXA-15 it was 0.061 µM. The MIC is 4 mg/L in the assay on E. coli 190317; 16 mg/L in the assay with K. pneumoniae BAA-1898; 16 mg/L in the assay with K. pneumoniae 6299; 8 mg/L in the assay on E. cloacae P99; more than 32 mg/L in the assay on P. aeruginosa CIP107051.

Take `O=C(c1ccn(C2=CC3CN(C2)C(=O)N3OS(=O)(=O)[O-])n1)N1CCOCC1.[Na+]` (centres unmarked) [Example 31, sodium (7-oxo-3-[3-(morpholine-4-carbonyl)pyrazol-1-yl]-1,6-diazabicyclo[3.2.1]oct-3-en-6-yl) sulfate]: the IC50 against SHV-1 amounted to 0.0044 µM; against OXA-48, 0.003 µM; at TEM-1, 0.0013 µM; at CTX-M-15 it was 0.00062 µM; on AmpC (P99), 0.015 µM; on KPC-2, 0.011 µM. The 50% inhibitory concentration (IC50) on OXA-11 stood at 0.033 µM; against OXA-1, 0.064 µM; at AmpC (PAE), 0.21 µM; against OXA-15 it was 0.088 µM. The MIC with E. coli 190317, in the assay on K. pneumoniae BAA-1898, in the assay on K. pneumoniae 6299, in the assay with E. cloacae P99 and in the assay on P. aeruginosa CIP107051 was more than 32 mg/L throughout.

With `O=C1N2CC(n3cc(CO)nn3)=CC(C2)N1OS(=O)(=O)O` (centres unmarked) [Example 64, sodium [3-[4-(hydroxymethyl)triazol-1-yl]-7-oxo-1,6-diazabicyclo[3.2.1]oct-3-en-6-yl]sulfate], the IC50 against SHV-1 was found to be 0.0029 µM; at OXA-48, 0.0007 µM; against TEM-1, 0.00052 µM; at CTX-M-15 it was 0.001 µM; on KPC-2, 0.007 µM; against OXA-11, 0.096 µM. The IC50 was determined as 0.086 µM on OXA-1 and 0.0087 µM against OXA-15. Further, the MIC was 2 mg/L with E. coli 190317; 8 mg/L in the assay on K. pneumoniae BAA-1898; 32 mg/L with K. pneumoniae 6299; 4 mg/L with E. cloacae P99; more than 32 mg/L in the assay on P. aeruginosa CIP107051.

Consider `O=C1N2CC(n3ccc(CO)n3)=CC(C2)N1OS(=O)(=O)O` (centres unmarked) [Example 12, triethylammonium [3-[3-(hydroxymethyl)pyrazol-1-yl]-7-oxo-1,6-diazabicyclo[3.2.1]oct-3-en-6-yl]sulfate], for which the IC50 against SHV-1 stood at 0.0021 µM; on OXA-48, 0.012 µM; on TEM-1, 0.00041 µM; at CTX-M-15, 0.00053 µM; against AmpC (P99), 0.015 µM; on KPC-2, 0.026 µM. Further, the IC50 on OXA-11 worked out at 0.07 µM; against OXA-1 it was 0.2 µM; against AmpC (PAE) it was 0.052 µM; on OXA-15, 0.19 µM. Also, the minimum inhibitory concentration (MIC) in the assay with E. coli 190317 is 1 mg/L; with K. pneumoniae BAA-1898 it was 8 mg/L; with K. pneumoniae 6299, 16 mg/L; with E. cloacae P99 it was 4 mg/L; in the assay with P. aeruginosa CIP107051, more than 32 mg/L.

Consider `O=C1N2CC(n3ccc([C@H](O)CO)n3)=CC(C2)N1OS(=O)(=O)[O-].[Na+]` (stereo partly drawn) [Example 76, sodium [3-[3-[(1S)-1,2-dihydroxyethyl]pyrazol-1-yl]-7-oxo-1,6-diazabicyclo[3.2.1]oct-3-en-6-yl]sulfate], for which the IC50 on SHV-1 stood at 0.0073 µM; against OXA-48, 0.05 µM; against TEM-1 it was 0.0018 µM; against CTX-M-15, 0.0021 µM; on AmpC (P99) it was 0.029 µM; against KPC-2, 0.073 µM. In addition, the half-maximal inhibitory concentration (IC50) on OXA-11 is 0.26 µM; against OXA-1 it was 0.86 µM; at AmpC (PAE), 0.21 µM; on OXA-15 it was 0.61 µM. The MIC is 8 mg/L with E. coli 190317; more than 32 mg/L in the assay with K. pneumoniae BAA-1898; more than 32 mg/L in the assay with K. pneumoniae 6299; 32 mg/L with E. cloacae P99; more than 32 mg/L in the assay with P. aeruginosa CIP107051.

What is called IC50 is the point on the concentration scale where inhibition reaches its midpoint. One may read the MIC as the lowest concentration that inhibits growth of the organism.
